Tests used:
[1] = test system: Puccinia recondita f. Sp. Tritici; assay: Fungicidal activity, wheat leaf disc preventative (brown rust); type: in vivo; conditions: foliar, 200 ppm in the applied formulation, wheat leaf segments cv. Kanzler, compared to untreated control, 7 to 9 days after application, read-out: disease control
How it was run: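 Wheat cv. Kanzler leaf segments on agar were sprayed with formulated compound in water, then inoculated with spores 1 day later. Incubated at 19° C, 75% rh, 12 h light/12 h dark; percent disease control versus untreated scored 7 to 9 days after application.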

[2] = test system: Glomerella lacenarium (Colletotrichum lacenarium); assay: Fungicidal activity, liquid culture, cucumber preventative (anthracnose); type: cell-based; conditions: 20 ppm in the applied formulation, liquid culture in PDB, inhibition of growth measured photometrically 3 to 4 days after application, compared to untreated control, read-out: disease control
How it was run: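 Conidia from cryogenic storage were mixed into potato dextrose broth and added to DMSO solutions of test compound in microtiter plates. Plates were incubated at 24° C. and growth inhibition read photometrically 3 to 4 days after application, as percent antifungal activity versus untreated check.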

[3] = test system: Puccinia recondita f. Sp. Tritici; assay: Fungicidal activity, wheat leaf disc curative (brown rust); type: in vivo; conditions: foliar, 200 ppm in the applied formulation, wheat leaf segments cv. Kanzler, curative (applied 1 day after inoculation), compared to untreated control, 6 to 8 days after application, read-out: disease control
How it was run: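 Wheat cv. Kanzler leaf segments on agar were inoculated with fungal spore suspension, held dark at 19° C and 75% RH, then sprayed 1 day later with formulated compound diluted in water. Incubation continued at 19° C, 75% RH, 12 h light/12 h dark; percent disease control versus untreated was scored 6 to 8 days after application.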

CN(Cc1ccc(-c2noc(C(F)(F)F)n2)s1)C(=O)C1(C)COC1 [Compound 5.23, N,3-dimethyl-N-[[5-[5-(trifluoromethyl)-1,2,4-oxadiazol-3-yl]-2-thienyl]methyl]oxetane-3-carboxamide]
≥ 80%: pest or weed control at 200 ppm [1] | inhibition of growth at 20 ppm [2] | pest or weed control at 200 ppm [3]

CC(C)N(Cc1ccc(-c2noc(C(F)(F)F)n2)s1)C(=O)C1CCOC1 (stereo not drawn) [Compound 5.28, N-isopropyl-N-[[5-[5-(trifluoromethyl)-1,2,4-oxadiazol-3-yl]-2-thienyl]methyl]tetrahydrofuran-3-carboxamide]
≥ 80%: pest or weed control at 200 ppm [1] | inhibition of growth at 20 ppm [2] | pest or weed control at 200 ppm [3]

CC(C)N(Cc1ccc(-c2noc(C(F)(F)F)n2)s1)C(=O)C1(C)COC1 [Compound 5.32, N-isopropyl-3-methyl-N-[[5-[5-(trifluoromethyl)-1,2,4-oxadiazol-3-yl]-2-thienyl]methyl]oxetane-3-carboxamide]
≥ 80%: pest or weed control at 200 ppm [1] | inhibition of growth at 20 ppm [2] | pest or weed control at 200 ppm [3]

O=C(C1CCOC1)N(Cc1ccc(-c2noc(C(F)(F)F)n2)s1)C1CC1 (stereo not drawn) [Compound 5.37, N-cyclopropyl-N-[[5-[5-(trifluoromethyl)-1,2,4-oxadiazol-3-yl]-2-thienyl]methyl]tetrahydrofuran-3-carboxamide]
≥ 80%: pest or weed control at 200 ppm [1] | inhibition of growth at 20 ppm [2] | pest or weed control at 200 ppm [3]

CC1(C(=O)N(Cc2ccc(-c3noc(C(F)(F)F)n3)s2)C2CC2)CC1 [Compound 5.39, N-cyclopropyl-1-methyl-N-[[5-[5-(trifluoromethyl)-1,2,4-oxadiazol-3-yl]-2-thienyl]methyl]cyclopropanecarboxamide]
≥ 80%: pest or weed control at 200 ppm [1] | inhibition of growth at 20 ppm [2] | pest or weed control at 200 ppm [3]

O=C(C1CCCO1)N(Cc1ccc(-c2noc(C(F)(F)F)n2)s1)C1CC1 (stereo not drawn) [Compound 5.40, N-cyclopropyl-N-[[5-[5-(trifluoromethyl)-1,2,4-oxadiazol-3-yl]-2-thienyl]methyl]tetrahydrofuran-2-carboxamide]
≥ 80%: pest or weed control at 200 ppm [1] | inhibition of growth at 20 ppm [2] | pest or weed control at 200 ppm [3]

CC1(C(=O)N(Cc2ccc(-c3noc(C(F)(F)F)n3)s2)C2CC2)COC1 [Compound 5.41, N-cyclopropyl-3-methyl-N-[[5-[5-(trifluoromethyl)-1,2,4-oxadiazol-3-yl]-2-thienyl]methyl]oxetane-3-carboxamide]
≥ 80%: pest or weed control at 200 ppm [1] | inhibition of growth at 20 ppm [2] | pest or weed control at 200 ppm [3]

O=C(C1CC1(F)F)N(Cc1ccc(-c2noc(C(F)(F)F)n2)s1)C1CC1 (stereo not drawn) [Compound 5.42, N-cyclopropyl-2,2-difluoro-N-[[5-[5-(trifluoromethyl)-1,2,4-oxadiazol-3-yl]-2-thienyl]methyl]cyclopropanecarboxamide]
≥ 80%: pest or weed control at 200 ppm [1] | inhibition of growth at 20 ppm [2] | pest or weed control at 200 ppm [3]

CC1CC1C(=O)N(Cc1ccc(-c2noc(C(F)(F)F)n2)s1)C1CC1 (stereo not drawn) [Compound 5.43, N-cyclopropyl-2-methyl-N-[[5-[5-(trifluoromethyl)-1,2,4-oxadiazol-3-yl]-2-thienyl]methyl]cyclopropanecarboxamide]
≥ 80%: pest or weed control at 200 ppm [1] | inhibition of growth at 20 ppm [2] | pest or weed control at 200 ppm [3]

CC1CC1C(=O)N(Cc1ccc(-c2noc(C(F)(F)F)n2)s1)OCC(F)F (stereo not drawn) [Compound 5.50, N-(2,2-difluoroethoxy)-2-methyl-N-[[5-[5-(trifluoromethyl)-1,2,4-oxadiazol-3-yl]-2-thienyl]methyl]cyclopropanecarboxamide]
≥ 80%: pest or weed control at 200 ppm [1] | inhibition of growth at 20 ppm [2] | pest or weed control at 200 ppm [3]

CCN(Cc1ccc(-c2noc(C(F)(F)F)n2)s1)C(=O)N(CC(F)F)C1CC1 [Compound 5.51, 1-cyclopropyl-1-(2,2-difluoroethyl)-3-ethyl-3-[[5-[5-(trifluoromethyl)-1,2,4-oxadiazol-3-yl]-2-thienyl]methyl]urea]
≥ 80%: pest or weed control at 200 ppm [1] | inhibition of growth at 20 ppm [2] | pest or weed control at 200 ppm [3]

CCN(Cc1ccc(-c2noc(C(F)(F)F)n2)s1)C(=O)N1CCCO1 [Compound 5.52, N-ethyl-N-[[5-[5-(trifluoromethyl)-1,2,4-oxadiazol-3-yl]-2-thienyl]methyl]isoxazolidine-2-carboxamide]
≥ 80%: pest or weed control at 200 ppm [1] | inhibition of growth at 20 ppm [2] | pest or weed control at 200 ppm [3]

CCCN(CC1CC1)C(=O)N(CC)Cc1ccc(-c2noc(C(F)(F)F)n2)s1 [Compound 5.53, 1-(cyclopropylmethyl)-3-ethyl-1-propyl-3-[[5-[5-(trifluoromethyl)-1,2,4-oxadiazol-3-yl]-2-thienyl]methyl]urea]
≥ 80%: pest or weed control at 200 ppm [1] | inhibition of growth at 20 ppm [2] | pest or weed control at 200 ppm [3]

CN(Cc1ccc(-c2noc(C(F)(F)F)n2)s1)C(=O)N(CC(F)F)C1CC1 [Compound 5.54, 1-cyclopropyl-1-(2,2-difluoroethyl)-3-methyl-3-[[5-[5-(trifluoromethyl)-1,2,4-oxadiazol-3-yl]-2-thienyl]methyl]urea]
≥ 80%: pest or weed control at 200 ppm [1] | inhibition of growth at 20 ppm [2] | pest or weed control at 200 ppm [3]

CN(Cc1ccc(-c2noc(C(F)(F)F)n2)s1)C(=O)N1CCC2(CC2)C1 [Compound 5.55, N-methyl-N-[[5-[5-(trifluoromethyl)-1,2,4-oxadiazol-3-yl]-2-thienyl]methyl]-5-azaspiro[2.4]heptane-5-carboxamide]
≥ 80%: pest or weed control at 200 ppm [1] | inhibition of growth at 20 ppm [2] | pest or weed control at 200 ppm [3]

CCCN(CC1CC1)C(=O)N(C)Cc1ccc(-c2noc(C(F)(F)F)n2)s1 [Compound 5.57, 1-(cyclopropylmethyl)-3-methyl-1-propyl-3-[[5-(5-(trifluoromethyl)-1,2,4-oxadiazol-3-yl]-2-thienyl]methyl]urea]
≥ 80%: pest or weed control at 200 ppm [1] | inhibition of growth at 20 ppm [2] | pest or weed control at 200 ppm [3]

CC(C)N(Cc1ccc(-c2noc(C(F)(F)F)n2)s1)C(=O)NC1CC1 [Compound 5.59, 3-cyclopropyl-1-isopropyl-1-[[5-[5-(trifluoromethyl)-1,2,4-oxadiazol-3-yl]-2-thienyl]methyl]urea]
≥ 80%: pest or weed control at 200 ppm [1] | inhibition of growth at 20 ppm [2] | pest or weed control at 200 ppm [3]

O=C(N1CCCO1)N(Cc1ccc(-c2noc(C(F)(F)F)n2)s1)C1CC1 [Compound 5.61, N-cyclopropyl-N-[[5-[5-(trifluoromethyl)-1,2,4-oxadiazol-3-yl]-2-thienyl]methyl]isoxazolidine-2-carboxamide]
≥ 80%: pest or weed control at 200 ppm [1] | inhibition of growth at 20 ppm [2] | pest or weed control at 200 ppm [3]

O=C(N1CCCO1)N(Cc1ccc(-c2noc(C(F)(F)F)n2)s1)OCC(F)F [Compound 5.64, N-(2,2-difluoroethoxy)-N-[[5-[5-(trifluoromethyl)-1,2,4-oxadiazol-3-yl]-2-thienyl]methyl]isoxazolidine-2-carboxamide]
≥ 80%: pest or weed control at 200 ppm [1] | inhibition of growth at 20 ppm [2] | pest or weed control at 200 ppm [3]

CCN(Cc1ccc(-c2noc(C(F)(F)F)n2)s1)C(=O)C(C)=O [Compound 6.6, N-ethyl-2-oxo-N-[[5-[5-(trifluoromethyl)-1,2,4-oxadiazol-3-yl]-2-thienyl]methyl]propanamide]
≥ 80%: pest or weed control at 200 ppm [1] | inhibition of growth at 20 ppm [2] | pest or weed control at 200 ppm [3]

Reference: patent publication US20200187502A1, “MICROBIOCIDAL OXADIAZOLE DERIVATIVES” (SYNGENTA PARTICIPATIONS AG, priority 2017, published 2020)
